Literature values in patent publication US20050026871A1 (priority 2002, published 2005).

Key:
[1] = reported in the literature; cited from earlier work
[2] = Physicians' Desk Reference, Rocaltrol Oral Solution; cited from earlier work

SMILES | pH at which alendronate is best absorbed [1] | time to peak serum concentrations after ingestion [2]
NCCCC(O)(P(=O)(O)O)P(=O)(O)O [Alendronate, alendronate] | ~6 | 
C=C1/C(=C\C=C2/CCC[C@]3(C)[C@@H]([C@H](C)CCCC(C)(C)O)CC[C@@H]23)C[C@@H](O)C[C@@H]1O [calcitriol, 1α,25-dihydroxyvitamin D3] |  | three to six
